“And” between values parts separate entries of the source, which are not always exact repeats. Equal values may be shown once.
Legend:
MDBK cells = assay: Rotenone-sensitive oxygen consumption rate in intact MDBK cells; type: cell-based, Bos taurus; design: key to rotenone sensitive OCR after 40 mins of biguanide exposure / rotenone sensitive OCR after 40 mins of biguanide exposure, average: % of OCR recorded immediately before biguanide addition; settings: for rotenone sensitive OCR after 6 hours of biguanide exposure, % control, average / rotenone sensitive OCR after 6 hours of biguanide exposure, average / rotenone sensitive OCR after 40 mins of biguanide exposure, % control, average / rotenone sensitive OCR after 40 mins of biguanide exposure, average / rotenone sensitive OCR after 40 mins of biguanide exposure / rotenone sensitive OCR after 40 mins of biguanide exposure, % control: biguanide at IC50/10; for rotenone sensitive OCR after 6 hours of biguanide exposure, average: OCR normalized to OCR immediately prior to biguanide addition; for rotenone sensitive OCR after 40 mins of biguanide exposure, % control, average / rotenone sensitive OCR after 40 mins of biguanide exposure, average / rotenone sensitive OCR after 40 mins of biguanide exposure / rotenone sensitive OCR after 40 mins of biguanide exposure, % control: MDBK intact cells; for rotenone sensitive OCR after 40 mins of biguanide exposure, % control, average / rotenone sensitive OCR after 40 mins of biguanide exposure, average: average of replicates; for rotenone sensitive OCR after 40 mins of biguanide exposure / rotenone sensitive OCR after 40 mins of biguanide exposure, % control: individual replicates
Method: 143B (CRL-8303 from ATCC), HepG2 (85011430 from The Health Protection Agency), and MDBK (CCL-22 from ATCC) cells were grown on Dulbecco’s modified Eagle’s medium (DMEM) supplemented with 10 % fetal bovine serum (FBS, Thermo Fisher Scientific) at 37 °C in 5 % CO2. All cells were confirmed as negative for mycoplasma.
Oxygen consumption rates (OCRs) were measured using a Seahorse XF96 extracellular flux analyzer at 37 °C. For intact cell measurements, 1.4 × 10^4 143B, HepG2, or MDBK cells were plated (per well) in DMEM containing 10 % FBS into Seahorse Bioscience Inc. XF96 plates and incubated for ~12 h at 37 °C in 5 % CO2. Then, the medium was exchanged for assay buffer containing DMEM, 4.5 g L^−1 glucose, 1 mM pyruvate, 32 mM NaCl, 2 mM GlutaMAX, 15 mg L^−1 phenol red, and 20 mM HEPES (pH 7.4 at 37 °C) and the cells placed in a CO2-free incubator at 37 °C for 30 min. Basal oxygen consumption rates were established before the addition of biguanides at one-tenth of their IC50 (IC50/10), and followed for ~ 6 h before the addition of rotenone (2 μM).
(§1) Rotenone-sensitive OCRs were calculated by subtracting the rotenone-insensitive rates (determined at the end of the experiment). OCRs were normalized by dividing by the OCR recorded immediately prior to the addition of biguanide. For rate of uptake calculations, the OCRs at time points after biguanide addition were divided by the OCRs at the same time points in control experiments. Data from wells with failed port injections were excluded from the analyses. The respiratory control ratio (RCR) values (state III versus state IV respiration) were ~11 and ~6 for permeabilized MDBK and 143B cells, respectively.

AMPK-α (phospho-Thr172) = assay: AMPK activation, western blot of phospho-AMPK-α in MDBK cells; type: cell-based, Bos taurus; settings: for p-alpha, average normalised to control: Averages of experiments 1-3, 18 hours; for p-alpha: band intensity
Method: MDBK cells were seeded at 1 × 10^6 cells per 6 cm dish in DMEM containing 10 % FBS. […] After 18 h cells were harvested by a rapid lysis procedure: cells were rinsed with PBS, then lysed using ice-cold buffer containing 50 mM HEPES, 1 mM EDTA, 10 % glycerol, 50 mM NaF, 5 mM sodium pyrophosphate, 1 % Triton-X100, 1 mM dithiothreitol (DTT), and a protease inhibitor cocktail (Roche). The cell lysate was centrifuged at 14,000 × g for 20 min at 4 °C and the protein concentration of the supernatant determined by bicinchoninic acid assay. The lysate was analyzed using Novex 3–12 % bis-Tris gels run in 3-(N-morpholino)propanesulfonic acid (MOPS) buffer (20 μg of protein per lane) followed by transfer to low fluorescence polyvinylidene fluoride membranes by wet transfer. Primary rabbit antibodies for AMPK-β (57C12), AMPK-α (phospho-Thr172) (40H9), and acetyl-coA carboxylase (phospho-Ser79) (Cell Signaling Technology) were incubated overnight with the membrane (1:1000 dilution) in Odyssey blocking buffer at 4 °C. A fluorescent secondary antibody was used (IRDYE800CW from LI-COR Biosciences, 1:20,000 dilution) with a LI-COR Odyssey imaging system.

[1] = test system: bovine mitochondrial membranes (complexes II-III-IV); assay: Succinate:O2 oxidoreduction (complexes II-III-IV, complex II assay) by bovine mitochondrial membranes; type: biochemical, Bos taurus; settings: biguanide concentrations set to the IC50 values for NADH:O2 on bovine membranes; control = 100.00; n = 3
Method: Assays were performed at 32 °C in a SpectraMax 96-well plate reader. NADH:decylubiquinone oxidoreduction by complex I at 0.5 μg mL^−1 was measured in 20 mM Tris-HCl (pH 7.2), 0.15 % soy bean asolectin (Avanti Polar Lipids), and 0.15 % 3-((3-cholamidopropyl)dimethylammonium)-1-propanesulfonate (CHAPS, Merck Chemicals Ltd), with 200 μM decylubiquinone and 200 μM NADH, and monitored using ε340–380(NADH) = 4.81 mM^−1 cm^−1 [23]. Catalysis was initiated by addition of NADH and maximal rates determined by linear regression. NADH:O2 oxidoreduction by membranes was measured similarly but using 5 μg mL^−1 membranes in 10 mM Tris-HCl (pH 7.4) and 250 mM sucrose using 200 μM NADH and supplemented with 0.15 mM horse heart cytochrome c (Sigma-Aldrich Ltd.). Succinate:O2 oxidoreduction was measured using 40 μg mL^−1 membranes in 5 mM succinate in 10 mM Tris-HCl (pH 7.4) as described previously. Control experiments included NaCl (to match the ionic strength) or DMSO, as appropriate.

permeabilized 143B cells = assay: ADP-stimulated rotenone-sensitive OCR in permeabilized 143B cells; type: cell-based, human; design: rotenone sensitive OCR after ADP stimulation, individual replicates / rotenone sensitive OCR after ADP stimulation, average: unit not given here; settings: for rotenone sensitive OCR after ADP stimulation, % of control, individual replicates / rotenone sensitive OCR after ADP stimulation, individual replicates / rotenone sensitive OCR after ADP stimulation, % of control, average / rotenone sensitive OCR after ADP stimulation, average: 143B permeabilised cells; for rotenone sensitive OCR after ADP stimulation, % of control, individual replicates / rotenone sensitive OCR after ADP stimulation, individual replicates: replicate 1-11; for rotenone sensitive OCR after ADP stimulation, % of control, average / rotenone sensitive OCR after ADP stimulation, average: average of replicates
Method: For permeabilized cell experiments, cells were seeded into XF96 plates at 0.9–1.1 × 10^4 per well and incubated for 48 h at 37 °C in 5 % CO2. Then, the growth medium was exchanged for assay buffer containing 3 nM plasma membrane permeabilizer ‘PMP’ (Seahorse Biosciences Inc.), 10 mM glutamate, 10 mM malate, 220 mM mannitol, 70 mM sucrose, 10 mM KH2PO4, 5 mM MgCl2, 1 mM EGTA, 0.2 % fatty acid-free bovine serum albumin (BSA), and 2 mM HEPES (pH 7.4 at 37 °C). […] The biguanides were allowed to accumulate for 30 min, then respiration was […] by the addition of 4 mM ADP. Rotenone was added (2 μM) at the end of the experiment.
as §1

| SMILES | rotenone sensitive OCR after 6 hours of biguanide exposure, % control, average (MDBK cells; MDBK cells) | rotenone sensitive OCR after 6 hours of biguanide exposure, average (MDBK cells; MDBK cells) | rotenone sensitive OCR after 40 mins of biguanide exposure, % control, average (MDBK cells) | rotenone sensitive OCR after 40 mins of biguanide exposure, average (MDBK cells) | rotenone sensitive OCR after 40 mins of biguanide exposure (MDBK cells) | rotenone sensitive OCR after 40 mins of biguanide exposure, % control (MDBK cells) | p-alpha, average normalised to control (AMPK-α (phospho-Thr172)) | p-alpha / AMPK beta (AMPK-α (phospho-Thr172); Experiment 1, 18 hours) | p-alpha / AMPK beta normalised to control (AMPK-α (phospho-Thr172); Experiment 1, 18 hours) | p-alpha (AMPK-α (phospho-Thr172); Experiment 1, 18 hours) | p-alpha / AMPK beta (AMPK-α (phospho-Thr172); Experiment 2, 18 hours) | p-alpha / AMPK beta normalised to control (AMPK-α (phospho-Thr172); Experiment 2, 18 hours) | p-alpha (AMPK-α (phospho-Thr172); Experiment 2, 18 hours) | p-alpha / AMPK beta (AMPK-α (phospho-Thr172); Experiment 3, 18 hours) | p-alpha / AMPK beta normalised to control (AMPK-α (phospho-Thr172); Experiment 3, 18 hours) | p-alpha (AMPK-α (phospho-Thr172); Experiment 3, 18 hours) | Complex II assay (succinate:O2 oxidoreduction), average [1] | rotenone sensitive OCR after ADP stimulation, % of control, individual replicates (permeabilized 143B cells) | rotenone sensitive OCR after ADP stimulation, individual replicates (permeabilized 143B cells) | rotenone sensitive OCR after ADP stimulation, % of control, average (permeabilized 143B cells) | also measured |
| --- | --- | --- | --- | --- | --- | --- | --- | --- | --- | --- | --- | --- | --- | --- | --- | --- | --- | --- | --- | --- | --- |
| NC(N)=NC(N)=NCc1ccccc1 [compound 3, 2-benzyl-1-(diaminomethylidene)guanidine] | 18.14 % control | 18.19 | 88.51 % control | 90.06 | 86.89 and 91.07 and 89.16 and 91.81 and 91.02 and 90.42 | 85.39 % control and 89.50 % control and 87.62 % control and 90.23 % control and 89.45 % control and 88.86 % control | 10.88 | 1.27 | 10.17 | 594 | 1.33 | 9.10 | 402 | 2.78 | 13.38 | 628 | 97.37 | 6.07 % of control and 2.51 % of control and 3.63 % of control and 7.99 % of control and 8.80 % of control and 18.64 % of control and 13.94 % of control and 7.14 % of control and 16.57 % of control and 2.18 % of control and 7.53 % of control | 14.50 and 5.99 and 8.67 and 19.08 and 21.01 and 44.51 and 33.29 and 17.05 and 39.56 and 5.21 and 17.98 |  |  |
| NC(N)=NC(N)=NCCc1ccc(Cl)cc1 [compound 1, 2-[2-(4-chlorophenyl)ethyl]-1-(diaminomethylidene)guanidine] | 64.04 % control | 64.24 | 96.88 % control | 98.58 | 98.09 and 97.70 and 99.35 (3×) and 96.88 and 99.34 | 96.40 % control and 96.02 % control and 97.64 % control (3×) and 95.21 % control and 97.63 % control | 5.54 | 0.63 | 5.05 | 288 | 1.08 | 7.41 | 388 | 0.86 | 4.15 | 220 | 92.41 | 28.33 % of control and 12.14 % of control and 11.88 % of control and 16.92 % of control and 4.82 % of control and 10.72 % of control and 0.16 % of control and 5.78 % of control and 8.84 % of control and 6.27 % of control | 67.63 and 28.97 and 28.36 and 40.38 and 11.50 and 25.59 and 0.37 and 13.80 and 21.11 and 14.98 | 10.59 % of control | maximal rate of accumulation (estimated matrix concentration) (MDBK cells; MDBK cells, biguanide at IC50/10 in the extracellular medium (phenformin 34 μM; compound 1 37 μM), estimated from OCR inhibition): 1 µM/min; AMPK activation (in words) (AMPK-α (phospho-Thr172); 18-h treatment, IC50/10 biguanide concentrations): slightly lower activation; rotenone sensitive OCR after ADP stimulation, average (permeabilized 143B cells): 25.27 |
| N=C(N)NC(N)=Nc1ccccc1 [compound 2, phenyl biguanide] | 99.86 % control | 100.16 | 98.99 % control | 100.73 | 97.96 and 102.05 and 98.68 and 102.17 and 103.50 and 100.00 | 96.27 % control and 100.30 % control and 96.98 % control and 100.41 % control and 101.71 % control and 98.28 % control | 1.18 | 0.14 | 1.11 | 64.6 | 0.17 | 1.14 | 57.4 | 0.27 | 1.28 | 57.3 | 92.05 | 64.11 % of control and 81.27 % of control and 71.75 % of control and 89.78 % of control and 64.02 % of control and 84.74 % of control and 60.92 % of control and 78.85 % of control and 104.39 % of control and 61.15 % of control | 153.03 and 194.01 and 171.28 and 214.31 and 152.84 and 202.30 and 145.43 and 188.22 and 249.19 and 145.97 | 76.10 % of control | rotenone sensitive OCR after ADP stimulation, average (permeabilized 143B cells): 181.66; inhibition of the OCR (in words) (permeabilized 143B cells; permeabilized 143B cells, biguanide concentration equal to IC50): only limited inhibition |
